Test results reported in patent US20070219214A1, “Dual NK2/NK3-antagonists, pharmaceutical compositions comprising them, and processes for their preparation” (Solvay pharmaceuticals GmbH, priority 2006, published 2007).

Legend:
[1] = target: T1, NK2-receptor (Cavia porcellus, UniProt Q64077); assay: Functional NK2-receptor antagonism in gall bladder preparations isolated from guinea pigs; conditions: neurokinin A-induced contraction
T1 construct: from tissue; host or cells: whole animal (Pirbright-White guinea pigs), in vivo
T1 sequence (Q64077 1-402): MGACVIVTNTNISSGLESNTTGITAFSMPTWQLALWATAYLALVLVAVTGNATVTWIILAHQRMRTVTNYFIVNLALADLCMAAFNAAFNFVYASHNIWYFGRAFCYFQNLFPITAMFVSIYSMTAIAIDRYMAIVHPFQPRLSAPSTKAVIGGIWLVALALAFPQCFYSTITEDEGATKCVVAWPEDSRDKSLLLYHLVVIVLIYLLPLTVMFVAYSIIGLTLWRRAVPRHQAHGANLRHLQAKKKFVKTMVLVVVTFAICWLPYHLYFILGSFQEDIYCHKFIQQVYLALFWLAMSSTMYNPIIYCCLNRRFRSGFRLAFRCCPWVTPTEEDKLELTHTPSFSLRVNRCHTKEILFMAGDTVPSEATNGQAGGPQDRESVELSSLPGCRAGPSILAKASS
Procedure: 6. Determination of Functional NK2-Receptor Antagonism of Test Compounds in Tissue Isolated from Guinea Pigs.
(§1) The NK2 antagonistic action of test compounds was tested in gall bladder preparations isolated from guinea pigs. The preparations were kept in an oxygenated nutrient solution kept at 37° C. For measuring contraction of the gall bladder muscle, the preparations were fixed to a hook and connected to force displacement transducers. Contractions were recorded on a pen recorder.
Before (predrug) and after the administration of the test compound such contractions were measured and quantified in percent of the predrug contraction. 2-3 concentrations of the test compound were applied showing the inhibition of the receptor stimulation concentration dependently. […]

[2] = target: human NK1-receptor (Homo sapiens, UniProt P25103); assay: Functional cellular test, Ca2+ measurements using FLIPR for NK1 activity; type: cell-based; design: expressed in transfected cells; host or cells: CHO fibroblast cells; conditions: for pA2 data for NK1: CHO cells, human NK1, FLIPR Ca2+, agonist substance P 10^-8 M
human NK1-receptor, sequence (P25103 whole entry): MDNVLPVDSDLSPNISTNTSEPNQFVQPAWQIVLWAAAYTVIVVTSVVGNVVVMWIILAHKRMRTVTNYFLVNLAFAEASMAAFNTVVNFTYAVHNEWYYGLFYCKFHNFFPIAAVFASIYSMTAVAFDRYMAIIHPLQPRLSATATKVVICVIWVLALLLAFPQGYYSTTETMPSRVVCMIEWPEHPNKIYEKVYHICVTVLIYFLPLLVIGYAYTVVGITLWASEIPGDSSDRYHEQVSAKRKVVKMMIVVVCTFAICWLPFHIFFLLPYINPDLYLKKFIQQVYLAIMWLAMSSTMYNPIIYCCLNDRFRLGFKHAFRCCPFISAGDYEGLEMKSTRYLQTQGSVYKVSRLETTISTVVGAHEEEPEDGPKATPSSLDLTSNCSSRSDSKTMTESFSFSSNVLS
Source text: The NK receptor is coupled to Gq.
All steps were done under sterile conditions.

[3] = target: T2, NK3-receptor (Meriones unguiculatus, UniProt Q2YHR0); assay: NK3-receptor-antagonistic effectiveness in vivo, senktide-induced hypothermia in gerbils; conditions: gerbil; for Inhibition of temperature increase at t = 60 minutes after oral (po) administration: senktide 0.03 mg/kg sc; for Inhibition of temperature increase at a dose of 10 mg/kg after parenteral (ip) administration: 10 mg/kg ip
T2 construct: from tissue; host or cells: whole animal (male gerbils), in vivo
T2 sequence (Q2YHR0 1-454): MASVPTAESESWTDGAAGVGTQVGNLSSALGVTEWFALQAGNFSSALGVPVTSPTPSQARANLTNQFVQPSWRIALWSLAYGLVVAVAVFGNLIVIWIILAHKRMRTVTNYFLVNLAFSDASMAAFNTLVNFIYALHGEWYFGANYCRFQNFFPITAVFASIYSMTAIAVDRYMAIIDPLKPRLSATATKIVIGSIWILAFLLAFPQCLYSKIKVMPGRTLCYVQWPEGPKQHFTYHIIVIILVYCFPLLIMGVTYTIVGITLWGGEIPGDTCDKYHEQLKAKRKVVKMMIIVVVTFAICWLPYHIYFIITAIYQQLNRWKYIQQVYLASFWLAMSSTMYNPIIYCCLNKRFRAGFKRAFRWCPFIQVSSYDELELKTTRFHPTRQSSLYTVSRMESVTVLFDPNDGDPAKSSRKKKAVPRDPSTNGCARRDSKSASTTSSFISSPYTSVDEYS
Procedure: 8. Determination of the NK3-Receptor-Antagonistic Effectiveness of the Test Substances In Vivo (Reduction of Body Temperature in Gerbils with Senktide-Induced Hypothermia)
NK3 agonists reduce the body temperature of gerbils. The senktide-induced hypothermia can be antagonized by administering compounds with NK3-antagonistic properties. Measuring the level of hypothermia is indicative for the degree of activity of the test compounds. The own effect of the tested compound is assessed in the same experiment to exclude an additional hyperthermic effect.
Male gerbils with a body weight between 60 to 90 g are housed in groups under normal day-night rhythm and under constant environmental temperature (room temperature: 21±2° C.) with a constant relative humidity level (50±10%). Water and food are freely available. […] Antagonists: see example compounds in table X.
The animals are weighted and marked 60 minutes prior to the agonist administration. For oral (po) testings, the test compounds are administered at t=−60 minutes. For parenteral or subcutaneous (i por sc, resp.) administration, at t=−30 minutes. […] At t=15 minutes the temperature is measured orally, and registered with a 0.1° C. accuracy after a 10 second reading. This way, animals are measured every 60 sec.

[4] = target: T3, NK3-receptor (Cavia porcellus, UniProt P30098); assay: Functional NK3-receptor antagonism in ileal preparations isolated from guinea pigs; conditions: guinea pig ileum, [MePhe7]-neurokinin B-induced contraction
T3 construct: from tissue; host or cells: whole animal (Dunkin Hartley guinea pigs), in vivo
T3 sequence (P30098 1-440): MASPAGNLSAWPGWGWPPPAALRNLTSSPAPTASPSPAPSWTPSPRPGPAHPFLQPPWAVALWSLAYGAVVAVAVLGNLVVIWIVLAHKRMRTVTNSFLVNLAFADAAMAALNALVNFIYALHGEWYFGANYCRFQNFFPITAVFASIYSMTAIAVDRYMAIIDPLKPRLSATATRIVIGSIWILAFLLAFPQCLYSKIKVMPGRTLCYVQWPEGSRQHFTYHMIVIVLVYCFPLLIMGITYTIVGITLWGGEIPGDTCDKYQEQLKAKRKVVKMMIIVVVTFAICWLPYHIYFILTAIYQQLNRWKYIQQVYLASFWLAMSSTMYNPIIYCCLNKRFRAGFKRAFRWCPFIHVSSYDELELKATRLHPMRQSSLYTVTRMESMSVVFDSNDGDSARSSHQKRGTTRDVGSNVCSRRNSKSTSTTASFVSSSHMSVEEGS
Procedure: 7. Determination of Functional NK3-Receptor Antagonism of Test Compounds in Tissue Isolated from Guinea Pigs.
as §1, with “NK3-antagonistic” for “NK2 antagonistic”, “ileal” for “gall bladder”, “longitudinal muscle of the ileum,” for “gall bladder muscle,”
The NK3-receptors were stimulated with the NK3-receptor agonist [MePhe^7]-neurokinin B, causing a contraction of the muscle. Before (predrug) and after the administration of the test compound such contractions were measured and quantified in percent of the predrug contraction. 2-3 concentrations of the test compound were applied showing the inhibition of the receptor stimulation concentration dependently. […] The pIC50 value indicates the inhibitory potency of the test compounds to the NK3-receptor.

[5] = t = 30 minutes after administration

In the case of `CN(C)C(=O)C1(N2CCCCC2)CCN(CC[C@H](CN(C)C(=O)c2cc(C#N)c3ccccc3c2)c2ccc(Cl)c(Cl)c2)CC1` [compound 11], the “pA2, NK-2-receptor-antagonistic effectiveness on the guinea pig gall bladder in vitro” value (“pA2 … in vitro” below) [1] is reported as 8.03 and the “pA2 data for NK1” value [2] is reported as 7.9.
`CN(C)C(=O)C1(N2CCCCC2)CCN(CC[C@H](CN(C)C(=O)c2ccccc2)c2ccc(Cl)c(Cl)c2)CC1` [compound 1] was tested, and the “Inhibition of temperature increase at t = 60 minutes after oral (po) administration” value ([3]; Dose: 10 mg/kg po) was 37%, the “Inhibition of temperature increase at t = 60 minutes after oral (po) administration” value ([3]; Dose: 30 mg/kg po) was 54% and the Kb ([2]; read-out: pA2 data for NK1 (converted)) was 7.94 nM.
For `CN(C)C(=O)C1(N2CCCCC2)CCN(CC[C@H](CN(C)C(=O)c2cc(F)ccc2F)c2ccc(Cl)c(Cl)c2)CC1` [compound 15], the “pA2 data for NK1” value [2] was 7.2.
In the case of `CN(C)C(=O)C1(N2CCCCC2)CCN(CC[C@H](CN(C)C(=O)c2ccc(F)c(F)c2)c2ccc(Cl)c(Cl)c2)CC1` [compound 14], the “pA2 data for NK1” value [2] is reported as 7.3.
With `CN(C)C(=O)C1(N2CCCCC2)CCN(CC[C@H](CN(C)C(=O)c2ccc(O)cc2)c2ccc(Cl)c(Cl)c2)CC1` [compound 6, 1′-{(3S)-3-(3,4-dichlorophenyl)-4-[(4-hydroxybenzoyl)-(methyl)amino]butyl}-N,N-dimethyl-1,4′-bipiperidine-4′-carboxamide] the “Inhibition of temperature increase at a dose of 10 mg/kg after parenteral (ip) administration” value [3, 5] was 75%.
For `CN(C)C(=O)C1(N2CCCCC2)CCN(CC[C@H](CN(C)C(=O)C2CCCCC2)c2ccc(Cl)c(Cl)c2)CC1` [compound 3], the “pA2 … in vitro” value [1] was 8.96 and the “pA2, functional NK3-antagonism on isolated guinea pig tissue” value [4] was 8.5.
With `CN(C)C(=O)C1(N2CCCCC2)CCN(CC[C@H](CN(C)C(=O)c2ccc(F)cc2)c2ccc(Cl)c(Cl)c2)CC1` [compound 4] the “pA2 … in vitro” value [1] was 8.86, the “pA2, functional NK3-antagonism on isolated guinea pig tissue” value [4] was 8.0 and the “Inhibition of temperature increase at a dose of 10 mg/kg after parenteral (ip) administration” value ([3]; t = 15 minutes after administration) was 54%. For the same compound, the “Inhibition of temperature increase at a dose of 10 mg/kg after parenteral (ip) administration” value [3, 5] was 68%.
In the case of `CN(C)C(=O)C1(N2CCCCC2)CCN(CC[C@H](CN(C)C(=O)c2ccc(F)cc2F)c2ccc(Cl)c(Cl)c2)CC1` [compound 13], the “pA2 data for NK1” value [2] is reported as 7.5.
